Laboratory results reported in PMC4019449 (Annals of Clinical and Translational Neurology, 2014).

Experiments:
GluN1/GluN2A receptors = GluN1/GluN2A receptors (Homo sapiens, UniProt Q05586+Q12879); assay: Screening of FDA-approved NMDAR antagonists, TEVC oocyte recordings, wild type; format: cell-based
[1] = molecular target: T1, GluN1/GluN2A-L812M receptors (Homo sapiens, UniProt Q05586+Q12879, L812M); format: cell-based
[2] = molecular target: GluN1/GluN2A-N615K receptors (Homo sapiens, UniProt Q05586+Q12879, N615K); format: cell-based
[3] = molecular target: T1, GluN1/GluN2A-L812M receptors; assay: Agonist potency, TEVC recordings from Xenopus laevis oocytes, L812M mutant; format: cell-based
seizures of the proband = assay: Antiepileptic treatment of the proband; format: in vivo, human
[4] = test system: animal models of epilepsy; conditions: wide range of animal models of epilepsy; cited from earlier work
[5] = used in children; cited from earlier work
[6] = read-out: percent maximal inhibition

For `NC12CC3CC(CC(C3)C1)C2` [Amantadine], the IC50 (GluN1/GluN2A receptors) was 110 ± 11 µM, the inhibition at 1000 µM (GluN1/GluN2A receptors; [6]) was 94% and the IC50 [1] was 113 ± 5.1 µM. It also gave an inhibition at 1000 µM [1, 6] of 88%, an IC50 [2] of 458 ± 25 µM and an inhibition at 1000 µM [2, 6] of 76%.
`COc1ccc2c(c1)[C@]13CCCC[C@@H]1[C@H](C2)N(C)CC3` [Dextromethorphan] gave an inhibition at 300 µM (GluN1/GluN2A receptors; [6]) of 88%, an IC50 [1] of 33 ± 4.8 µM and an inhibition at 300 µM [1, 6] of 91%. The IC50 [2] was 9 ± 1.3 µM, the “enhanced potency on N615K-containing NMDARs in comparison to wild-type NMDARs” value ([2]; N615K compared with wild type) was “twofold” and the inhibition at 300 µM [2, 6] was 92%.
In the case of `CN1CC[C@@]23CCCC[C@@H]2[C@@H]1Cc1ccc(O)cc13` [Dextrorphan], the IC50 (GluN1/GluN2A receptors) is reported as 1.9 ± 0.3 µM, the inhibition at 30 µM (GluN1/GluN2A receptors; [6]) is reported as 92% and the IC50 [1] is reported as 6.1 ± 1.3 µM. The inhibition at 30 µM [1, 6] was 85%, the IC50 [2] was 0.34 ± 0.06 µM and the inhibition at 30 µM [2, 6] was 96%.
For `NCC(=O)O` [Glycine], the “reduction in EC50 (increased potency), GluN2A-L812M vs wild type” value ([3]; L812M compared with wild type) was “eightfold” and the EC50 ([3]; read-out: Glycine EC50, L812M, in the presence of 100 μmol/L glutamate, -40 mV) was 0.14 ± 0.01 µM.
In the case of `CC12CC3CC(C)(C1)CC(N)(C3)C2` [Memantine], the inhibition at 100 µM (GluN1/GluN2A receptors; [6]) is reported as 89%, the inhibition at 100 µM [1, 6] is reported as 87% and the inhibition at 100 µM [2, 6] is reported as 69%. For the same compound, the cognitive ability (seizures of the proband; memantine treatment) was “remained unchanged”, the “interictal EEG after treatment” value (seizures of the proband; postmemantine EEG, wakefulness and sleep) was “no asymmetries or epileptiform discharges” and the myoclonic jerks (seizures of the proband; upon memantine treatment) was “ceased”. The side effects (seizures of the proband; ~0.5 mg/kg per day) was “without side effects”, the anticonvulsant effects [4] was “anticonvulsant effects” and the toxicity in children [5] was “without toxicity”.
